{
  "source": "patent US20250281672A1",
  "about": "“IDENTIFICATION OF PRO- AND ANTI-INFLAMMATORY LIPIDS RELATING TO IMMUNE RESPONSE TO MEDICAL IMPLANTS” (William Marsh Rice University, priority 2021, published 2025)",
  "key": {"brain of mice": {"tested_on": "brain of mice", "assay": "2-week PDMS pillar implantation in mouse brain; histology and immunohistochemistry", "assay_type": "in vivo", "conditions": "PDMS pillars, 2 weeks", "procedure": "Mouse Brain Implantation. C57BL/6J mice were allowed to acclimate for greater than one week prior to surgical manipulation. After the acclimation period, 24 hours prior to surgery, the mice were premedicated with 5 mg/kg meloxicam SC for analgesia. 30 minutes prior to surgery, the mice were given 30 mg/kg trimethoprim-sulfamethoxazole PO for antimicrobial prophylaxis. The mice were then anesthetized with 3% isoflurane with 1 L/min O2 in an induction chamber and then transferred to a nose cone with 1-3% inhaled isoflurane with 0.5 L/min O2 for maintenance anesthesia. Depth of anesthesia was monitored testing for no response to toe pinch throughout surgery. Immediately following induction, the mouse was placed on a warming pad and maintained on the warming pad throughout surgery. The fur on the mouse head was trimmed with an electric razor and topical anesthetic with 2.5% lidocaine/prilocaine cream was applied for several minutes. The mice were then given 5 mg/kg meloxicam SC and 0.1 mg/kg buprenorphine SC for analgesia. The trimmed mouse scalp was then scrubbed with 7.5% povidone-iodine solution. Sterile neoprene surgical gloves (Medichoice) and sterile autoclaved instruments were used to maintain sterile technique throughout surgery. […]"}, "[1]": {"tested_on": "gonadal fat pads of C57BL/6 adult male mice, a pro-fibrotic mouse model", "assay": "28-day implantation of functionalized PDMS disks on gonadal fat pads (IP space); gross fibrosis and histology", "assay_type": "in vivo", "conditions": "28 days", "procedure": "PDMS disk/pillar preparation & functionalization. PDMS implants were made with SYLGARD™ 184 silicone elastomer by mixing the base and curing agent in a ratio of 10:1 and letting sit 24 hours at room temperature in either sheets or pillar molds. The PDMS sheets were punched with 4 mm biopsy punches to make disks, or the pillar were removed from their molds, and plasma cleaned under general atmospheric air on each side for 1 minute at high Rf, 700-800 torr. Samples were then functionalized by one of two methods: Method 1) for the methacryloyl modified Z2-Y12 and Z2-Y12 Analog, the PDMS disks were incubating in a solution of DMSO:ACN (Sigma) (60:40) overnight under nitrogen gas flow. For the methacryloyl modified Z1-Y15 (0.2M), methacryloyl Z1-Y15 was added to DMSO (0.3 w/v %) and heated to 80° C. Separately Milli-Q H2O was heated to 80° C. and added to the reaction dropwise for a final mixture of 1:4 DMSO:Milli-Q H2O. The mixture was left stirring under reduced heat 40-50° C. under high stirring conditions ([…]). PDMS sheets were added to this mixture and allowed to stir overnight under Nitrogen gas. Disks were submerged in 1×PBS and left to soak for 10 minutes. Samples were then washed 3× with 1×PBS after overnight functionalization. […] Functionalized disks were maintained at −80° C. until they were ready for implantation. […]"}},
  "data": [
    {"smiles": "NCCOCCOCCOCCn1cc(CN2CCS(=O)(=O)CC2)nn1", "note": "[Z1]", "values": [
      {"measurement": "accumulation/migration of immune cells at the implant site (immunohistochemistry)", "setting": "brain of mice", "value": "not observed"},
      {"measurement": "fibrotic strands of cells at the implant site (histology)", "setting": "brain of mice", "value": "absent"},
      {"measurement": "adherent peripheral tissue on disks (FBR and fibrosis)", "setting": "[1]; PDMS disks, gonadal fat pads", "value": "virtually no adherent peripheral tissue was found"},
      {"measurement": "interfacial fibrotic layer on the implant surface (histology)", "setting": "[1]; tissue around PDMS implants", "value": "prevented the development of an interfacial fibrotic layer"}
    ]}
  ]
}
